The subject of test [1] is mice dendritic cells (D.2.4 cells). Description: Expression of 100% cytidine-modified luciferase (FLuc) mRNA, LPP-wrapped, in dendritic cells (luciferase activity, RLU). Format: cell-based. Conditions: FIG. 2; for difference of luciferase expression versus the control and m^4C (significance analysis on variance): 100% of cytidine replaced, control = cytidine without modification, P≤0.01, 24 h after transfection. An excerpt:
Obtaining of the mRNA of the modified luciferase: DNA sequence of Luc may be in vitro transcribed to mRNA by means of a transcriptase under a conventional reagent condition. During the process of transcription, modified mRNA in varying proportions were obtained according to a ratio of the modified C (cytidine) and non-modified C, where the modified mRNA may contain U-modified mRNA in varying proportions. The sequence was in vitro synthesized into the following modified mRMA, thus forming new modified luciferase. In the above sequence (SEQ NO:1), cytidine was replaced by the modified C* in the present invention; and the following modified C* denotes the expression of the mRNA of 5 monocytidine-modified mRNA having a modification ratio of 100% (namely, all the C were replaced into the following 5 different C* modifications, m^4C (N4-methylcytidine), and m^4Cm (N^4, 2′-O-dimethylcytidine), specifically as shown in Table 1.
1.2.1: Preparation of a phospholipid mixed liquor: phospholipid:DOPE:mPEG2000-DSPE=49:49:2 were dissolved into an ethanol solution. DOPE was purchased from Avanti, mPEG2000-DSPE was purchased from cordenpharma, and PBS was purchased from Invitrogen.
1.2.2: Preparation of mRNA: 1 mL mRNA (mRNA having a concentration of 0.2 mg/mL and total mass of 0.2 mg as shown in Table 2) in each treatment group was respectively sucked up by a BD injector.
1.2.3: Preparation of phospholipid/mRNA: […] and 3 mL phospholipid solution (having a concentration of 12 mg/mL) were respectively sucked up by a BD injector and inserted into a micro-fluidic chip (the microfluidics herein should be a small-sized equipment capable of producing package for nanoparticles); the setup parameters: volume: 9.0 mL; and flow rate ratio: 3:1, total flow rate: 1 mL/min; temperature: 37.0° C., initial amount: 0.35 mL; ending amount: 0.10 mL, thus a phospholipid/mRNA solution was obtained, namely, mRNA particles wrapped by phospholipid and a phospholipid mixed solution were obtained.
Thereby, the wrapped mRNA carrier in each treatment group was obtained.
Experiment reagent: (1) water was added to a harvest buffer (25 ml): 1.25 ml 1 M Tris-HCl(pH7.5), 25 μl 1 M DTT, 250 μl 10% Triton X-100 to 25 ml for storage at 4° C. (2) water was added to an ATP buffer (10 ml): 1.25 ml 1 M Tris-HCl(pH7.5), 250 μl 1 M MgCl2, 24 mg ATP to 10 ml for storage at […] (3) luciferin buffer (36 ml): 10 mg luciferin, 36 ml 5 mM KH2PO4 (pH7.8) was performed for storage at 4° C. (4) PBS: […], 2.68 mMKCl, 10 mM Na2HPO4, 1.76 mM KH2PO4 was performed for storage at 4° C. […]
1.3.6: same volume of cell lysis buffer (100 μl) was successively taken and put to the microcentrifuge tubes in step 5, and mixed evenly immediately, and […] were read on a Luminometer. […]

The test system of test [2] is dendritic cells. Briefly: Influence of different modification ratios of cytidine on luciferase mRNA expression. It counts as cell-based, mice. Conditions: for difference of expression at the best modification ratio versus other modification ratios (variance analysis): best ratio: invention 1 80%-100%, invention 4 20%, invention 2 40%, invention 3 5%; for trend of expression with the increase of the modification ratio: cytidine replaced at 0.5% to 100%; for trend of expression with the increase of the modification ratio / modification ratio with the maximum (optimal) expression quantity: FIGS. 4-7; for modification ratio with the maximum (optimal) expression quantity / modification ratio at which the expression quantity is relatively high: luciferase mRNA, part of the cytidine replaced; for modification ratio at which the expression quantity is relatively high: FIGS. 5-7. The procedure: mRNA of the luciferase in Example 1 was set as an example; a portion of cytidine was replaced with the compounds of the modified cytidine in the present invention having a ratio of 0.5%, 5%, 10%, 20%, 30%, 40%, 50%, 70%, 80% and 90%; and the specific replacement method was as follows: transcription was performed by a transcriptase of in vitro luciferase DNA with the supply of AUCG raw materials and according to a conventional method, where the synthesis method should be controlled and replaced, and then a portion of cytidine in mRNA was replaced according to the above ratio. The influence of the replacement in different ratios on the expression of mRNA was surveyed.

Test [3] relates to dendritic cells. Description: Influence of a 120A Poly(A) tail on the 3′ terminal on expression of modified luciferase mRNA in dendritic cells. Format: cell-based, mice. Conditions: 120A tail; luciferase mRNA 100% modified; compared with FIG. 2 (FIG. 3). The procedure:
120A was added on a 3′ terminal as a tail, so as to survey the influence of adding Poly(A) on the 3′ terminal on the translation effect, as well as on the expression of the luciferase 100% modified by the inventions 1-4 and control group. The influence on enzyme expression was measured according to the packaging method and cell infection method in Example 1. It can be obviously seen through the comparison of FIG. 2 that the expression was increased both to the modified or non-modified mRNA after adding a Ploy (A) structure on the 3′ terminal.

With `Cc1cn(C2CC(O)C(COP(=O)([O-])OP(=O)([O-])OP(=O)([O-])[O-])O2)c(=O)nc1N=C(N)N.[K+].[K+].[K+].[K+]` (stereo not shown) [invention 2], the “difference of luciferase expression versus m^4Cm-modified mRNA” value in test [1] (100% modification, comparator m^4Cm (N^4,2′-O-dimethylcytidine)) is recorded as “no significant difference”. Also, the “difference of luciferase expression versus the control and m^4C (significance analysis on variance)” value (“difference … (significance analysis on variance)” for short) in test [1] was “highly significant difference”. Moreover, in the test with dendritic cells [2], the “difference of expression at the best modification ratio versus other modification ratios (variance analysis)” value is on record as “significant or highly significant differences”, the “trend of expression with the increase of the modification ratio” value is recorded as “gradually increases”, the “modification ratio with the maximum (optimal) expression quantity” value (shortened to “modification ratio with the maximum”) is 40% and the “modification ratio at which the expression quantity is relatively high” value is listed as 20%-40%.

For the compound `NC(N)=Nc1ccn(C2OC(COP(=O)([O-])OP(=O)([O-])OP(=O)([O-])[O-])C(O)C2O)c(=O)n1.[K+].[K+].[K+].[K+]` (stereo not shown) [invention 1], the “difference … (significance analysis on variance)” value in test [1] is recorded as “highly significant difference”. Also, the “change of expression after adding a Poly(A) structure on the 3′ terminal” value in the test with dendritic cells [3] is listed as “comparatively obvious”. Besides, in the test with dendritic cells [2], the “difference of expression at the best modification ratio versus other modification ratios (variance analysis)” value is “significant difference”, the “trend of expression with the increase of the modification ratio” value is reported as “increased” and the “modification ratio with the maximum” value is 80%-100%.

With `Cc1c(O)c(N=C(N)N)nc(=O)n1C1OC(COP(=O)([O-])OP(=O)([O-])OP(=O)([O-])[O-])C(O)C1O.[K+].[K+].[K+].[K+]` (stereo not shown) [invention 4], the “difference … (significance analysis on variance)” value in test [1] is “highly significant difference”. In addition, in the test with dendritic cells [2], the “difference of expression at the best modification ratio versus other modification ratios (variance analysis)” value is “significant or highly significant differences”, the “trend of expression with the increase of the modification ratio” value is “gradually increases”, the “modification ratio with the maximum” value amounted to 20% and the “modification ratio at which the expression quantity is relatively high” value is given as 20%-40%.

Values taken from patent US12595279B2, “Modified nucleoside and synthetic methods thereof” (STEMIRNA THERAPEUTICS CO., LTD., priority 2019, dated 2026).
